# Source: patent EP4772497A1, “POLYMORPHS OF NITROGEN-CONTAINING HETEROCYCLIC COMPOUNDS, AND USES THEREOF” (BNH Research Co., Ltd., priority 2023, dated 2025)
# Experiments:
# [1] = Parallel artificial membrane permeability assay (PAMPA) for BBB permeability; format: in vitro ADME; details: PAMPA, pH 7.2, BBB lipid membrane, PBS (pH 7.2); read-out: PAMPA Pe
# Method: • PAMPA: PMBBB-096 Kit • Assay format: 96-well plate • Reference substance: Imipramine (H) (10 µM) • Test substance concentration: 10 µM • Number of replicates: 3 • Reaction time: 6 hours at 25°C on a shaker (75 - 80 rpm) • Analytical method: LC-MS/MS • Data processing: Pe (cm/s)
# The test compounds (crystalline forms A and C) were dissolved in DMSO at a concentration of 10 mM […] to prepare standard solutions. Next, dried brain lipids were resuspended in 600 µL dodecane to prepare a BBB lipid solution in dodecane. Pipetting up and down was repeated (~100 times) until all dried brain lipids were dissolved (vortexing or sonication may be helpful). A 10 µM reaction solution in PBS containing 5% DMSO was prepared.
# The experiments were conducted in a 96-well plate using the prepared reaction solution of each test compound and the BBB lipid solution according to the following assay procedure. • 1. 500 µL of a 500 µM test compound solution (prepared by mixing 25 µL of a 10 mM test compound + 475 µL of PBS (pH 7.2) in DMSO) was prepared in a separate centrifuge tube. When a permeability control was used, it was diluted to 500 µM using PBS (prepared by mixing 25 µL of permeability control + 475 µL of PBS (pH 7.2)). • 2. For each test compound and control, a 200 µM equilibrium standard was prepared in a separate tube (by mixing 80 µL of 500 µM test compound or control with 120 µL of PBS (pH 7.2)). […] The absorbance spectrum from 200 nm to 500 nm was measured at 10 nm intervals to determine the peak absorbance of the test compounds. […] The peak absorbances of the high-permeability and low-permeability controls are 250 nm and 270 nm, respectively.
# For the compounds and permeability controls, the permeability rate (Pe) was determined using the following equation: Pe = C × −ln(1−(ODA)/(ODE))cm/s [formula]
# Here, ODA is the absorbance of the acceptor solution minus the blank, and ODE is the absorbance of the equilibrium standard minus the blank. For each absorbance value, the peak absorbance determined for each test was used. […]
# [2] = Solubility assay of crystalline form A in 17 solvents; format: physicochemical; details: thermodynamic from solid
# Method: For solubility assay, about 5 mg or about 10 mg of crystalline form A was weighed into a 2 mL glass vial. A 20 µL aliquot of each of the 17 solvents listed in Table 8 was added to the vial to dissolve the drug substance. For about 5 mg of crystalline form A, the drug substance was dissolved at 25°C; and for about 10 mg of crystalline form A, the drug substance was dissolved at 50°C. To aid dissolution, vortexing and sonication were applied to facilitate dissolution, and the maximum volume of each solvent added was 1 mL.
smiles,measurement,setting,value
"C[C@@H]1CC[C@H](C(=O)O)CN1C(=O)Cc1ccc(F)cc1Cl [Crystalline form A, (3S,6R)-1-(2-(2-chloro-4-fluorophenyl)acetyl)-6-methylpiperidine-3-carboxylic acid]","Papp at 6 h, 10 µM",[1],0.00925 ×10⁻⁶ cm/s
same,solubility,"[2]; organic solvent or mixture, 1,4-Dioxane, 25°C",> 250 mg/mL
same,solubility,"[2]; organic solvent or mixture, 1,4-Dioxane, 50°C",> 500 mg/mL
same,solubility,"[2]; organic solvent or mixture, 2-MeTHF, 25°C",> 250 mg/mL
same,solubility,"[2]; organic solvent or mixture, 2-MeTHF, 50°C",> 500 mg/mL
same,solubility,"[2]; organic solvent or mixture, Acetone, 25°C",125 to 250 mg/mL
same,solubility,"[2]; organic solvent or mixture, Acetone, 50°C",> 500 mg/mL
same,solubility,"[2]; organic solvent or mixture, Acetonitrile, 25°C",41 to 50 mg/mL
same,solubility,"[2]; organic solvent or mixture, Acetonitrile, 50°C",> 500 mg/mL
same,solubility,"[2]; organic solvent or mixture, DMF, 25°C",> 250 mg/mL
same,solubility,"[2]; organic solvent or mixture, DMF, 50°C",> 500 mg/mL
same,solubility,"[2]; organic solvent or mixture, DMSO, 25°C",> 250 mg/mL
same,solubility,"[2]; organic solvent or mixture, DMSO, 50°C",> 500 mg/mL
same,solubility,"[2]; organic solvent or mixture, Dichloromethane, 25°C",> 250 mg/mL
same,solubility,"[2]; organic solvent or mixture, Dichloromethane, 50°C",> 500 mg/mL
same,solubility,"[2]; organic solvent or mixture, Ethanol, 25°C",125 to 250 mg/mL
same,solubility,"[2]; organic solvent or mixture, Ethanol, 50°C",> 500 mg/mL
same,solubility,"[2]; organic solvent or mixture, Ethyl acetate, 25°C",41 to 50 mg/mL
same,solubility,"[2]; organic solvent or mixture, Ethyl acetate, 50°C",250 to 500 mg/mL
same,solubility,"[2]; organic solvent or mixture, Heptane, 25°C",< 5 mg/mL
same,solubility,"[2]; organic solvent or mixture, Heptane, 50°C",< 10 mg/mL
same,solubility,"[2]; organic solvent or mixture, Isopropyl acetate, 25°C",63 to 83 mg/mL
same,solubility,"[2]; organic solvent or mixture, Isopropyl acetate, 50°C",125 to 167 mg/mL
same,solubility,"[2]; organic solvent or mixture, MTBE, 25°C",16 to 20 mg/mL
same,solubility,"[2]; organic solvent or mixture, MTBE, 50°C",33 to 50 mg/mL
same,solubility,"[2]; organic solvent or mixture, Methanol, 25°C",> 250 mg/mL
same,solubility,"[2]; organic solvent or mixture, Methanol, 50°C",> 500 mg/mL
same,solubility,"[2]; organic solvent or mixture, Methyl ethyl ketone, 25°C",83 to 125 mg/mL
same,solubility,"[2]; organic solvent or mixture, Methyl ethyl ketone, 50°C",250 to 500 mg/mL
same,solubility,"[2]; organic solvent or mixture, Tetrahydrofuran, 25°C",> 250 mg/mL
same,solubility,"[2]; organic solvent or mixture, Tetrahydrofuran, 50°C",> 500 mg/mL
same,solubility,"[2]; organic solvent or mixture, Toluene, 25°C",17 to 25 mg/mL
same,solubility,"[2]; organic solvent or mixture, Toluene, 50°C",50 to 100 mg/mL
same,solubility,"[2]; Water, 25°C",< 5 mg/mL
same,solubility,"[2]; Water, 50°C",< 10 mg/mL
